One series deals with T1, phosphodiesterase 5 (Homo sapiens, UniProt O76074).
T1 construct: The thrombocytes are lysed by ultrasound and used in the PDE 5 assay; from tissue; host or cells: human thrombocytes (platelets) from citrate-anticoagulated blood, lysed by ultrasound
The experiment in a line: PDE 5 activity in enzyme preparations from human thrombocytes. The class given is biochemical. Conditions: human thrombocyte enzyme, 0.5 μM [3H]cGMP; read-out: IC50, inhibition of phosphodiesterase 5. As to the method: PDE 5 activity is determined in enzyme preparations from human thrombocytes. Human blood was anti-coagulated with citrate. By centrifuging at 700 g for 20 minutes at room temperature, the thrombocyte-rich plasma in the supernatant is separated from the erythrocytes and leukocytes. The thrombocytes are lysed by ultrasound and used in the PDE 5 assay. With a few modifications, the phosphodiesterase activity is determined by the method described by Thompson et al. (Thompson, W. J., Appleman, M. M., Assay of cyclic nucleotide phosphodiesterase and resolution of multiple molecular forms of the enzyme, Adv. Cycl. Nucl. Res. 1979, 10, 69-92). The reaction mixtures contain 50 mM of tris HCl (pH 7.4), 5.5 mM of MgCl2, the inhibitors in variable concentrations, the enzyme preparation and the fuirther components necessary for determining the individual isoenzymes PDE 5 (see below). The reaction is started by the addition of the substrate, 0.5 μM of [^3H] cGMP (approximately 6,000 CPM/test). The final volume is […]. Test substances are prepared as stock solutions in DMSO. The DMSO concentration in the reaction mixture is 1% v/v. The PDE 5 activity is not affected by this concentration of DMSO. After the reaction is started by the addition of substrate, the samples are incubated for 30 minutes at 37° C. The reaction is stopped by heating the test tubes for 2 minutes at 110° C. The samples remain for a further 10 minutes in ice. The addition of 30 μL of 5′-nucleotidase (1 mg/mL, from a Crotalus adamanteus snake poison suspension) is followed by an incubation for 10 minutes at 37° C. The samples are stopped on ice. After the addition of 400 μL of a (1:1:1) mixture of Dowex, water and ethanol, the samples are mixed well and incubated once again for 15 minutes on ice. The reaction vessels are centrifuged for 20 minutes at 3,000 g. Subsequently, 200 μL aliquots of the supernatant are transferred directly to scintillation vessels. After the addition of 3 mL of scintillator, the samples are measured in the Betacounter. The in each case nonspecific enzyme activities are determined in the presence of 100 μM of IBMX for the determination of the PDE 5 and subtracted from the test values.

The subject of another series is human atrium tissue. The experiment in a line: Influencing cAMP and cGMP levels in human atrium strips. The format is cell-based. The settings on record: 1.0 μmoles/L, 10 minutes. The procedure:
(§1) Strips of human atrium and human corpus cavernosum are incubated for 10 minutes with the test compounds at a concentration of 1.0 μmoles/L The preparations are frozen with liquid nitrogen and the resulting levels of the cyclic nucleotides are determined.

Series [1] deals with human corpus cavernosum tissue. The experiment in a line: Influencing cAMP and cGMP levels in human corpus cavernosum strips. The class given is cell-based. Conditions: 1.0 μmoles/L, 10 minutes. As to the method: as §1
The test system of series [2] is Rat fetal lung fibroblast cells (RFL-6). Briefly: Reinforcement of NO donor-induced intracellular cGMP increase in rat fetal lung fibroblasts. The settings on record: RFL-6 cells. The class given is cell-based. The source says: Rat fetal lung fibroblast cells (RFL-6) represent a suitable medium for investigating influence of the action of NO on the intracellular cGNP level (Ishii et al. 1991). The basic mechanism can be transferred to the smooth vascular musculature of the corpus cavemosum.
As a fuinction of the concentration, the inventive compounds reinforce the increase in the intracellular cGXD level induced by the NO donor S-nitroso-N-acetyl-D,L-penicillamine.

Series [3] has as its system human corpus cavernosum strips. The experiment in a line: In vitro relaxation of human corpus cavernosum pre-contracted with noradrenalin. The format is cell-based. Conditions: organ bath. The procedure: Strips of human corpus cavernosum are pre-contracted in an organ bath with noradrenalin. For test compounds, the relaxation is determined as a function of the concentration.

With “5-(2,6-dichlrobenzyl)-1-ethyl-8-methoxy-3-methyl-imidazol[1,5-a]-pyrido[3,2-e]pyrazinone [Example 10]”, the IC50 at phosphodiesterase 5 is 132 nM.

For “5-cyclohexyl-1-ethyl-8-methoxy-3-methyl-imidazo[1,5-a]-pyrido[3,2-e]pyrazinone [Example 1]”, the IC50 at phosphodiesterase 5 is 25 nM.

For `CCc1nc(C)c2c(=O)n(Cc3ccccc3)c3ccc(OC)nc3n12` [Example 2, 5-benzyl-1-ethyl-8-methoxy-3-methyl-imidazo[1,5-a]-pyrido[3,2-e]pyrazinone], the melting point was 166 to 167 °C. Also, the IC50 on phosphodiesterase 5 was determined as 203 nM.

In turn, `CCc1nc(C)c2c(=O)n(Cc3ccccc3F)c3ccc(OC)nc3n12` [Example 5, 1-ethyl-5-(2-fluorobenzyl)-8-methoxy-3-methyl-imidazo[1,5-a]-pyrido[3,2-e]pyrazinone] came in with a melting point of 186 to 187 °C. In addition, the IC50 on phosphodiesterase 5 was found to be 59 nM.

On to `CCc1nc(C)c2c(=O)n(Cc3ccc(OC)cc3)c3ccc(OC)nc3n12` [Example 7, 1-ethyl-8-methoxy-5-(4-methoxybenzyl)-8-methoxy-3-methyl-imidazo[1,5-a]-pyrido[3,2-e]pyrazinone], for which the melting point was 156 to 158 °C. Besides, the IC50 at phosphodiesterase 5 amounted to 104 nM.

For the compound `CCc1nc(C)c2c(=O)n(Cc3ccc(F)cc3)c3ccc(OC)nc3n12` [Example 8], the melting point fell in the range of 189 to 191 °C. Moreover, the IC50 on phosphodiesterase 5 was found to be 126 nM.

`CCc1nc(C)c2c(=O)n(Cc3ccc(Cl)cc3)c3ccc(OC)nc3n12` [Example 9, 5-(4-chlorobenzyl)-1-ethyl-8-methoxy-3-methyl-imidazo[1,5-a]-pyrido[3,2-e]pyrazinone] displayed a melting point of 201 to 202 °C. For the same compound, at phosphodiesterase 5, the IC50 was determined as 112 nM.

As for `CCc1nc(C)c2c(=O)n(Cc3c(F)cccc3Cl)c3ccc(OC)nc3n12` [Example 11, 5-(2-chloro-6-fluorobenzyl)-1-ethyl-8-methoxy-3-methyl-imidazo[1,5-a]-pyrido[3,2-e]pyrazinone], the melting point was 197 to 200 °C. Further, at phosphodiesterase 5, the IC50 was 19 nM. In the series with human atrium tissue, the “increase of cAMP level” value was determined as 11% and the “increase of cGMP level” value amounted to 247%. In series [1], the “increase of cAMP level” value worked out at 80% and the “increase of cGMP level” value turned out to be 214%.

On to `CCc1nc(C)c2c(=O)n(Cc3c(F)cccc3F)c3ccc(OC)nc3n12` [Example 12, 5-(2,6-difluorobenzyl)-1-ethyl-8-methoxy-3-methyl-imidazo[1,5-a]-pyrido[3,2-e]pyrazinone], for which the melting point lay in the range of 177 to 180 °C. The IC50 on phosphodiesterase 5 stood at 38 nM.

For `CCc1nc(C)c2c(=O)n(Cc3c(F)ccc(F)c3F)c3ccc(OC)nc3n12` [Example 13, 1-ethyl-8-methoxy-3-methyl-5-(2,3,6-trifluorobenzyl)-imidazo[1,5-a]-pyrido[3,2-e]pyrazinone], the melting point lay in the range of 183 to 185 °C. Also, at phosphodiesterase 5, the IC50 is 16 nM. The “effectiveness relative to the nonspecific PDE inhibitor IBMX” value in series [2] (cGMP level increase) is 1000 times. Moreover, the “increase in the intracellular cGMP level” value in series [2] (compound at 0.10 μmoles/l, NO donor S-nitroso-N-acetyl-D,L-penicillamine) is on record as “significantly induces an increase”. Besides, the response in series [3] was half-maximal at 150 nM (EC50).

`CCCc1nc(C)c2c(=O)n(Cc3c(F)cccc3Cl)c3ccc(OC)nc3n12` [Example 14, 5-(2-chloro-6-fluorobenzyl)-8-methoxy-3-methyl-1-propyl-imidazo[1,5-a]-pyrido[3,2-e]pyrazinone]: the melting point fell in the range of 159 to 162 °C. In addition, at phosphodiesterase 5, the IC50 came out at 8 nM.

Consider `CCCc1nc(C)c2c(=O)n(Cc3c(F)cccc3F)c3ccc(OC)nc3n12` [Example 15, 5-(2,6-difluorobenzyl)-8-methoxy-3-methyl-1-propyl-imidazo[1,5-a]-pyrido[3,2-e]pyrazinone], for which the melting point was 171 to 172 °C. In addition, the IC50 at phosphodiesterase 5 came out at 2 nM.

With `CCCc1nc(C)c2c(=O)n(Cc3c(F)ccc(F)c3F)c3ccc(OC)nc3n12` [Example 16, 8-methoxy-3-methyl-1-propyl-5-(2,3,6-trifluorobenzyl)-imidazo[1,5-a]-pyrido[3,2-e]pyrazinone], the melting point lay in the range of 197 to 199 °C. The IC50 on phosphodiesterase 5 was determined as 5 nM.

With `CCCc1nn(C)c2c(=O)[nH]c(-c3cc(S(=O)(=O)N4CCN(C)CC4)ccc3OCC)nc12` [sildenafil, reference compound], the “increase of cAMP level” value with human atrium tissue is given as 240%; in series [1], 238%. The “increase of cGMP level” value in the series on human atrium tissue is 147%; in series [1], 15%.

These data come from patent US6465465B1, “Process for the treatment of erectile dysfunction and product therefor” (Arzneimittelwerk Dresden GmbH, priority 2000, dated 2002).
